According to patent US5399487A, “6-peptidylamino-1-naphthalenesulfonamides useful as fluorogenic proteolytic enzyme substrates” (Haematologic Technologies, Inc., priority 1993, dated 1995):
Where a SMILES comes first, the peptide text is derived from it. The star is where a group is joined. pNA = O=[N+]([O-])c1ccc(N*)cc1; Tos = Cc1ccc(S(=O)(=O)*)cc1

Key:
Format in all cases: biochemical
[1] = target: T1, factor Xa (Homo sapiens, UniProt P00742); assay: Kinetic constants of substrate hydrolysis, Chromozyme TH vs TosGPR-ANSN (Table A); details: 22° C., 0.02M TBS pH 7.4, 0.15M NaCl
T1 sequence (P00742 235-488 limits assumed): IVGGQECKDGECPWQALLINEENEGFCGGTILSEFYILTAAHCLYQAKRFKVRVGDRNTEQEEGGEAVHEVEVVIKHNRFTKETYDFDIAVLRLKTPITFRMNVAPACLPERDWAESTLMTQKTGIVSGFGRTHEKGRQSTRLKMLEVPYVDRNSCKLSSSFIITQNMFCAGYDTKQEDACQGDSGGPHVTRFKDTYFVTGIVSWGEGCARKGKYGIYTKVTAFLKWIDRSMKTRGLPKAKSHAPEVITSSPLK
T1 sequence (P00742 41-179 limits assumed): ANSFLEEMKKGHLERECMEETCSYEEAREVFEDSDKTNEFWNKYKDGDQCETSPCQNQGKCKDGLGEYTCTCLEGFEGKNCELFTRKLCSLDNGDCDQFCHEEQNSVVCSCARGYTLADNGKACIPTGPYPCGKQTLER
Experimental: (§1) The 6-amino-1-naphthalenesulfonamide detecting group increased the specificity of the overall kinetic efficiency of substrate hydrolysis by thrombin relative to the rate of hydrolysis of the p-nitroanilide substrate chromozyme TH (American Diagnostics). Commercially available substrate (Chromozyme TH, TosGPR-p-NA) was compared to a substrate of the present invention, Tosgly-pro-arg-ANSN(i-C4 H9) (TosGPR-ANSNH(i-C4 H9)) in an assay performed at 22° C. in 0.02M TBS buffer at pH 7.4, containing 0.15M NaCl.

[2] = target: T2, factor IIa (Homo sapiens, UniProt P00734); assay: as above; details: 22° C., 0.02M TBS pH 7.4, 0.15M NaCl
T2 construct: 0.5 nM human thrombin (IIa)
Experimental: as §1

[3] = target: T1, factor Xa; assay: Fluorogenic enzyme assay (Example 5); set-up: key to Kinetic constants, Xa (symbol b): slow substrate hydrolysis, no kinetic constants calculated; details: for TIME TO 10% HYDROLYSIS (HOURS), Xa / hydrolysis, Xa (symbol d): substrate 1 μM; for Kinetic constants, Xa (symbol b) / Km / kcat /Km, Xa / kcat, Xa: Table 9; for hydrolysis, Xa (symbol d): at 100 hours
Experimental: (§2) Enzyme assays (except factor VIIa assays, see below) were conducted in 20 mM Tris, 150 mM NaCl, pH 7.4 (TBS) at room temperature (22° C.). The final volume for all reaction mixtures was 2.0 ml. Fluorogenic substrates were dissolved in DMSO to a stock concentration of 10 mM. The 10 mM stock solution was diluted in TBS to the final working concentration prior to all assays. Enzyme was added to mixtures containing buffer components and substrate and the initial rate of substrate hydrolysis was measured as the change in fluorescent intensity over time, corresponding to the generation of the particular 6-amino-1-naphthalenesulfonamide fluorophore from the provided substrate. Quantitation of substrate hydrolysis was accomplished by establishing a standard curve from the appropriate fluorescent moiety. Fluorescence was monitored (continuously or discontinuously) using a Perkin Elmer fluorescence spectrophotometer, model MPF-44A, equipped with a standard chart recorder. The fluorophore was detected using monochrometers set at an excitation wavelength of 352 nm and an emission wavelength of 470 nm. Light scattering artifacts were minimized using a 399 nm cut off filter in the emission light beam.
(§3) The kinetic constants of substrate hydrolysis were determined using the non-linear least squares regression analysis program ENZFITTER (Cambridge, UK). This program was used to iteratively fit initial rates of substrate hydrolysis to the Michaelis-Menten equation and the kinetic constants of substrate hydrolysis (Km) and (kcat) were calculated.

[4] = target: T3, thrombin (IIa) (Homo sapiens, UniProt P00734); assay: Fluorogenic enzyme assay (Example 5); set-up: key to Kinetic constants, IIa (symbol b): slow substrate hydrolysis, no kinetic constants calculated
T3 construct: 0.5 nM human thrombin (IIa)
Experimental: as §2, §3

[5] = target: activated protein C (APC) (Homo sapiens, UniProt P04070); assay: Fluorogenic enzyme assay (Example 5); details: for TIME TO 10% HYDROLYSIS (HOURS), APC: substrate 1 μM; for Km / kcat /Km, APC / kcat, APC: Table 9
Sequence of activated protein C (APC) (P04070 212-461 limits assumed): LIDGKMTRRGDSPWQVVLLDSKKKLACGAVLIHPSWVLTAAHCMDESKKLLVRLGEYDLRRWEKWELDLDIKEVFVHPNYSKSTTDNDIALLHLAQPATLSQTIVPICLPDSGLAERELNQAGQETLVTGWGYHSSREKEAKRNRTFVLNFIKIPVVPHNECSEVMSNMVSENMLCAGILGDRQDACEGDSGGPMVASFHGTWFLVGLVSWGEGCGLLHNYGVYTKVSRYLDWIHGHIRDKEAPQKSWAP
Sequence of activated protein C (APC) (P04070 43-197 limits assumed): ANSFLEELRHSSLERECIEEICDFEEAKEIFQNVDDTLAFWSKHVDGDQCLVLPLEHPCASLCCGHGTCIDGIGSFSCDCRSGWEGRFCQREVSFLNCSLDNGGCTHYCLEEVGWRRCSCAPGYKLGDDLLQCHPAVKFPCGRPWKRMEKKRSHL
Experimental: as §2, §3

[6] = target: T4, factor VIIa (Homo sapiens, UniProt P08709); assay: Fluorogenic enzyme assay, relative hydrolysis rates (Table 8); details: at 100 hours; 10 nM enzyme, substrate 1 μM
T4 construct: directly measure the enzymatic activity of factor VIIa in the presence and absence of tissue factor and phospholipid
T4 sequence (P08709 213-466 limits assumed): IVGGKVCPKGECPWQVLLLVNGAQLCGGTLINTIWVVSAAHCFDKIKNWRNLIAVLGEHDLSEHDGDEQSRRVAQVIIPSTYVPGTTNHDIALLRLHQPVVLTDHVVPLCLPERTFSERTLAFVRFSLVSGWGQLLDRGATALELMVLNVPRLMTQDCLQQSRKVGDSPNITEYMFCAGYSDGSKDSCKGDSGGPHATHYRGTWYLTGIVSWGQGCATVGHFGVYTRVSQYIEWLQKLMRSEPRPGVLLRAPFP
T4 sequence (P08709 61-212 limits assumed): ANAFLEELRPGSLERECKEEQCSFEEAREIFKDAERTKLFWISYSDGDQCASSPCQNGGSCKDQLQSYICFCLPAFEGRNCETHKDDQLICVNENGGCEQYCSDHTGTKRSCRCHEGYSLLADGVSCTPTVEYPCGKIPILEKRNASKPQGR
Experimental: as §2
Factor VII assays were conducted in 20 mM HEPES, 150 mM NaCl, 5 mM CaCl2, pH 7.4 (HBS) at 37° C. The final volume for all reactions was 1.6 ml. 6-(Mes-D-Leu-Gly-Arg)amino-1-(N,N-diethyl)naphthalenesulfonamide was dissolved in DMSO to a stock concentration of 10 mM. This 10 mM stock solution of was diluted in HBS to final working concentration prior to all assays. For reactions involving tissue factor (TF) and phospholipid vesicles, recombinant human tissue factor was solubilized in either 0.04% n-dodecyl octaethylene glycol (C12 E8) or 0.8% octyl glucoside. The TF/n-dodecyl octaethylene glycol was then relipidated into PCPS or PC vesicles by a 30 minute incubation step as described by Lawson & Mann, J. Biol. Chem. 266: 11317-11327 (1991). TF/octyl glucoside was relipidated into PC or PCPS vesicles by a thirty minute incubation step followed by exhaustive dialysis. The final concentration of tissue factor used in the studies described here ranged from 2 to 50 nM depending on the nature of the experiment.
Fifteen minutes prior to the start of all reactions factor VIIa was added to the reaction system. This incubation period was followed by the addition of substrate (1 μM to 400 μM) to the mixture to start the reaction. In experiments designed to determine kinetic constants of substrate hydrolysis, 50 nM rVIIa was used when no tissue factor was present in the reaction system, while 0.5 nM rVIIa was used when tissue factor was present in the reaction system. The rate of substrate hydrolysis was measured by change in fluorescence over time, which corresponded with the generation of the 6-amino-1-(N,N-diethyl)naphthalenesulfonamide from the provided substrate. The kinetic constants of 6-(Mes-D-Leu-Gly-Arg)amino-1-(N,N-diethyl)naphthalenesulfonamide hydrolysis as a function of factor VIIa/tissue factor complex assembly are shown in Table 10.

[7] = target: urokinase (u-PA) (Homo sapiens, UniProt P00749); assay: Fluorogenic enzyme assay (Example 5); details: 100 nM enzyme, substrate 1 μM; for hydrolysis, u-PA (symbol d): at 100 hours
Experimental: as §2, §3

[8] = target: plasmin (Plm) (Homo sapiens, UniProt P00747); assay: Fluorogenic enzyme assay (Example 5); details: substrate 1 μM
Sequence of plasmin (Plm) (P00747 581-810 limits assumed, species assumed): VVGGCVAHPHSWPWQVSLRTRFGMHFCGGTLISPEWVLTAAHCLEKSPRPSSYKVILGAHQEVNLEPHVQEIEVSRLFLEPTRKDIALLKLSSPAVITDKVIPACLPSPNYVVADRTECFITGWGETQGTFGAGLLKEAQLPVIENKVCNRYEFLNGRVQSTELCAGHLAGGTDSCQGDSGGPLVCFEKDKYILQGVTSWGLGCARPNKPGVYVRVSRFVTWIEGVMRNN
Sequence of plasmin (Plm) (P00747 97-580 limits assumed, species assumed): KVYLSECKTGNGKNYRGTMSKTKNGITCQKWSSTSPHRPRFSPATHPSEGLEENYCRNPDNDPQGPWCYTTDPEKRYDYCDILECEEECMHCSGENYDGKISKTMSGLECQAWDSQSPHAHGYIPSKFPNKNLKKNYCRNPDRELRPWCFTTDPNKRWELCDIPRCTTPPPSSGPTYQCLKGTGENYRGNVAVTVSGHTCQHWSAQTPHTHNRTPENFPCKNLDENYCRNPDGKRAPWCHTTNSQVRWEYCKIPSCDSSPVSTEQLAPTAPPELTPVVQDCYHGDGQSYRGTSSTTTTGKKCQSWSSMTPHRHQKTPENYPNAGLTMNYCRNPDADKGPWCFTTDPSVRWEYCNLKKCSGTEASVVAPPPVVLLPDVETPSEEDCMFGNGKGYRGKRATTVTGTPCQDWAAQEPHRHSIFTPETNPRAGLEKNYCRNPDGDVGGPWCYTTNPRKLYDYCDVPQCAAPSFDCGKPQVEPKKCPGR
Experimental: as §2, §3

[9] = target: tissue plasminogen activator (t-PA) (Homo sapiens, UniProt P00750); assay: Fluorogenic enzyme assay (Example 5); details: 100 nM enzyme, substrate 1 μM; for hydrolysis, t-PA (symbol d): at 100 hours
Sequence of tissue plasminogen activator (t-PA) (P00750 36-562, species assumed): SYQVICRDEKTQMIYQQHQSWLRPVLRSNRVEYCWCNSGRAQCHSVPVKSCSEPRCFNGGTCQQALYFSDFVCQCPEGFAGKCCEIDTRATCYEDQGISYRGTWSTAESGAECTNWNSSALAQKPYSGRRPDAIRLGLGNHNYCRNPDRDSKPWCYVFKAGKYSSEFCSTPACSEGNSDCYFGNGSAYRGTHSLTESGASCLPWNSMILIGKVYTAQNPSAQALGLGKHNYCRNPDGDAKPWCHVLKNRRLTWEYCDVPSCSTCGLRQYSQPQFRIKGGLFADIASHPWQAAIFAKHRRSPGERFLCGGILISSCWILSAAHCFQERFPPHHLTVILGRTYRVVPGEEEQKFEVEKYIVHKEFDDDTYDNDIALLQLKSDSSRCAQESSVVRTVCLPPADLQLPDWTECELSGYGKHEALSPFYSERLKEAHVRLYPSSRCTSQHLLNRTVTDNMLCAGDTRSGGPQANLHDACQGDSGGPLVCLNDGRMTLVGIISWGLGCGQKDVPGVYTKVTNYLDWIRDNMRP
Experimental: as §2, §3

[10] = target: factor IXa (Homo sapiens, UniProt P00740); assay: Fluorogenic enzyme assay (Example 5); set-up: key to Kinetic constants, IXa (symbol b): slow substrate hydrolysis, no kinetic constants calculated; details: for hydrolysis, IXa (symbol d): at 100 hours
Sequence of factor IXa (P00740 227-461 limits assumed): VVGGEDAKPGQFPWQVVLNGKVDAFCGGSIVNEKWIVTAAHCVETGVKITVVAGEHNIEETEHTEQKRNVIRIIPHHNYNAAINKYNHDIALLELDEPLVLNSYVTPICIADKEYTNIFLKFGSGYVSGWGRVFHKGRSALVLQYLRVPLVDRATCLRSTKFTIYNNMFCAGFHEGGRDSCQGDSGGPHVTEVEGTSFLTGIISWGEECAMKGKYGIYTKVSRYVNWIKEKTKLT
Sequence of factor IXa (P00740 47-191 limits assumed): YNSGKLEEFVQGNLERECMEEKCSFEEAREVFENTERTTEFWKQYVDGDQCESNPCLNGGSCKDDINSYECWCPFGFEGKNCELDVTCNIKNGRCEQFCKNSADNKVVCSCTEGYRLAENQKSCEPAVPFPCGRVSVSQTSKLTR
Experimental: as §2, §3

Row | TIME TO 10% HYDROLYSIS (HOURS), IIa ([4]; 10 nM enzyme, substrate 1 μM) | TIME TO 10% HYDROLYSIS (HOURS), APC ([5]; 10 nM enzyme) | Km [5] | kcat /Km, APC [5] | kcat, APC [5] | TIME TO 10% HYDROLYSIS (HOURS), u-PA [7] | TIME TO 10% HYDROLYSIS (HOURS), Plm ([8]; 100 nM enzyme (footnote b)) | Kinetic constants, IXa (symbol b) ([10]; Table 9) | TIME TO 10% HYDROLYSIS (HOURS), Plm ([8]; 10 nM enzyme) | Compound | hydrolysis, VIIa (symbol d) [6] | hydrolysis, t-PA (symbol d) [9] | hydrolysis, IXa (symbol d) ([10]; 100 nM enzyme, substrate 1 μM) | hydrolysis, Xa (symbol d) ([3]; 10 nM enzyme) | hydrolysis, u-PA (symbol d) [7] | other results
1 |  |  |  |  |  |  |  |  |  | Cc1ccc(S(=O)(=O)NCC(=O)N2CCC[C@H]2C(=O)N[C@@H](CCCNC(=N)N)C(=O)Nc2ccc([N+](=O)[O-])cc2)cc1 [Chromozyme TH, reference compound] (Tos-Gly-Pro-Arg-pNA) |  |  |  |  |  | Kcat [1]: 244 s⁻¹; Km [1]: 364 µM; Kcat [2]: 14.1; Km [2]: 13.8 µM
2 | 93 h | 0.5 h | 267 µM | 11600 M⁻¹ s⁻¹ | 3.1 s⁻¹ | 24 h | 2.5 h | b |  | Br.Br.Br.N=C(N)NCCC[C@H](NC(=O)CNC(=O)CN)C(=O)N[C@@H](CCCNC(=N)N)C(=O)Nc1ccc2c(S(=O)(=O)NC3CCCCC3)cccc2c1 [GGRR-ANSNH(cyclo-C6 H11)] | d (hydrolysis at 100 hours was less than 10%.) | d (hydrolysis at 100 hours was less than 10%.) | d (hydrolysis at 100 hours was less than 10%.) |  |  | TIME TO 10% HYDROLYSIS (HOURS), Xa ([3]; 100 nM enzyme (footnote b)): 46 h; Kinetic constants, Xa (symbol b) [3]: b; Kinetic constants, IIa (symbol b) ([4]; Table 9): b
3 |  |  |  |  |  |  | 8 h |  |  | Br.Br.Br.CN(C)S(=O)(=O)c1cccc2cc(NC(=O)[C@H](CCCNC(=N)N)NC(=O)[C@@H](N)CCCCN)ccc12 [KR-ANSN(CH3)2] | d (hydrolysis at 100 hours was less than 10%.) | d (hydrolysis at 100 hours was less than 10%.) | d (hydrolysis at 100 hours was less than 10%.) | d (hydrolysis at 100 hours was less than 10%.) | d (hydrolysis at 100 hours was less than 10%.) | hydrolysis, IIa (symbol d) ([4]; at 100 hours, 10 nM enzyme, substrate 1 μM): d (hydrolysis at 100 hours was less than 10%.); TIME TO 10% HYDROLYSIS (HOURS), APC ([5]; 100 nM enzyme (footnote b)): 8 h
4 | 26 h |  |  |  |  |  | 1.5 h |  |  | CN(C)S(=O)(=O)c1cccc2cc(NC(=O)[C@H](CCCNC(=N)N)NC(=O)[C@@H](N)CCCCNC(=O)OCc3ccccc3)ccc12.Cl.Cl [N^ω -AZ)KJR-ANSN(CH3)2] | d (hydrolysis at 100 hours was less than 10%.) | d (hydrolysis at 100 hours was less than 10%.) | d (hydrolysis at 100 hours was less than 10%.) | d (hydrolysis at 100 hours was less than 10%.) | d (hydrolysis at 100 hours was less than 10%.) | TIME TO 10% HYDROLYSIS (HOURS), APC ([5]; 100 nM enzyme (footnote b)): 5.5 h
5 | 5 h | 0.25 h | 240 µM | 19600 M⁻¹ s⁻¹ | 4.7 s⁻¹ | 6 h |  | b | 13 h | CCCNS(=O)(=O)c1cccc2cc(NC(=O)[C@H](CCCNC(=N)N)NC(=O)[C@H](Cc3ccccc3)NC(=O)[C@@H]3CCCN3)ccc12.Cl.Cl [PFR-ANSNHC3 H7] | d (hydrolysis at 100 hours was less than 10%.) | d (hydrolysis at 100 hours was less than 10%.) | d (hydrolysis at 100 hours was less than 10%.) |  |  | TIME TO 10% HYDROLYSIS (HOURS), Xa ([3]; 10 nM enzyme): 1.25 h; Km [3]: 667 µM; kcat /Km, Xa [3]: 2000 M⁻¹ s⁻¹; kcat, Xa [3]: 1.33 s⁻¹; Km ([4]; Table 9): 600 µM; kcat /Km, IIa ([4]; Table 9): 600 M⁻¹ s⁻¹; kcat, IIa ([4]; Table 9): 0.36 s⁻¹
6 |  | 0.5 h | 246 µM | 28900 M⁻¹ s⁻¹ | 7.1 s⁻¹ | 1 h |  |  | 0.08 h | CC(C)C[C@@H](NC(=O)OCc1ccccc1)C(=O)N1CCC[C@H]1C(=O)N[C@@H](CCCNC(=N)N)C(=O)Nc1ccc2c(S(=O)(=O)N3CCCCC3)cccc2c1 [ZD-LPR-ANSN(CH2)5] | d (hydrolysis at 100 hours was less than 10%.) |  |  |  |  | TIME TO 10% HYDROLYSIS (HOURS), Xa ([3]; 10 nM enzyme): 0.02 h; Km [3]: 26.3 µM; kcat /Km, Xa [3]: 133000 M⁻¹ s⁻¹; kcat, Xa [3]: 3.5 s⁻¹; TIME TO 10% HYDROLYSIS (HOURS), IIa ([4]; 1 nM enzyme (footnote c), substrate 1 μM): 0.01 h; Km ([4]; Table 9): 4.2 µM; kcat, IIa ([4]; Table 9): 16.1 s⁻¹; TIME TO 10% HYDROLYSIS (HOURS), t-PA [9]: 1 h; TIME TO 10% HYDROLYSIS (HOURS), IXa ([10]; 100 nM enzyme, substrate 1 μM): 7 h; Km ([10]; Table 9): 141 µM; kcat, IXa ([10]; Table 9): 0.39 s⁻¹; kcat/Km, IXa ([10]; Table 9): 2750 M⁻¹ s⁻¹
7 | 93 h | 0.6 h | 320 µM | 19300 M⁻¹ s⁻¹ | 6.2 s⁻¹ |  |  | b | 47 h | N=C(N)NCCC[C@H](NC(=O)CNC(=O)CNC(=O)OCc1ccccc1)C(=O)N[C@@H](CCCNC(=N)N)C(=O)Nc1ccc2c(S(=O)(=O)NC3CCCCC3)cccc2c1 [ZGGRR-ANSNH(cyclo-C6 H11)] | d (hydrolysis at 100 hours was less than 10%.) | d (hydrolysis at 100 hours was less than 10%.) | d (hydrolysis at 100 hours was less than 10%.) | d (hydrolysis at 100 hours was less than 10%.) | d (hydrolysis at 100 hours was less than 10%.) | Kinetic constants, Xa (symbol b) [3]: b; Kinetic constants, IIa (symbol b) ([4]; Table 9): b
